In patent EP4659764A1, “LINKER DRUG, AND PREPARATION METHOD AND USE OF ANTIBODY-DRUG CONJUGATE THEREOF” (Lepu Biopharma Co., Ltd., priority 2023, dated 2024):

System: SKBR3 (breast cancer cell line)
Experiment: In vitro cell killing activity of ADCs, SKBR3
Format: cell-based
Conditions: Homo sapiens, SK-BR-3, incubation 72 hours, ADC DAR 8.0
From the text: Referring to the process of Example 13, the linker-drug conjugate mc-AAN-Exatecan was conjugated to a HER2 antibody, an EGFR antibody, and a non-specific binding antibody (Anti-HEL) respectively to prepare the corresponding ADCs. […] The cell killing activity was detected.

Work on CC[C@@]1(O)C(=O)OCc2c1cc1n(c2=O)Cc2c-1nc1cc(F)c(C)c3c1c2[C@@H](N)CC3 [Extecan, Exatecan] yielded an IC50 of 2.02 nM.
